Measured values as given in ChEMBL document CHEMBL1136091, “Borrelidin induces the transcription of amino acid biosynthetic enzymes via a GCN4-dependent pathway” (Bioorg Med Chem Lett, 2003).

What was measured:
[1] = tested on: Saccharomyces cerevisiae; test: Global transcription profiling experiment to examine the changes in the mRNA levels in the wt laboratory strain treated with the concentration of borrelidin ([…]) that inhibitedcontinued growth of wt yeast; format: functional
[2] = molecular target: Cyclin-dependent kinase 1 (Saccharomyces cerevisiae S288c, UniProt P00546); test: Inhibition of cyclin-dependent kinase activity of Cdc28p/CDK2p in Saccharomyces cerevisiae
Cyclin-dependent kinase 1, sequence (P00546 whole entry): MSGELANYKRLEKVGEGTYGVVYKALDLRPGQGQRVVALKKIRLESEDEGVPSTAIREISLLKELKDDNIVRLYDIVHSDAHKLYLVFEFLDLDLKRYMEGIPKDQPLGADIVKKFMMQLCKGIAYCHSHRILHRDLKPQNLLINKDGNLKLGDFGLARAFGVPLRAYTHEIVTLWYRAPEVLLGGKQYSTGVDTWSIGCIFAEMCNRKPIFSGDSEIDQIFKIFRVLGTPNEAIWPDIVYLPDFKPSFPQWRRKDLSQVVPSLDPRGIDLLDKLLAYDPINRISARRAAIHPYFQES

[3] = tested on: Saccharomyces cerevisiae; test: Ability to inhibit cell proliferation of Saccharomyces cerevisiae strain BY4741; format: functional, organism-based

In the case of `C[C@@H]1C[C@H](C)C[C@H](C)[C@@H](O)CC(=O)O[C@H]([C@@H]2CCC[C@H]2C(=O)O)C/C=C/C=C(/C#N)[C@H](O)[C@@H](C)C1` [BORRELIDIN], the Inhibition [1] is reported as 75%, the IC50 [2] is reported as 24 µM and the IC50 [3] is reported as 23 µM.
